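Test compounds were applied to cells in 96-well plates for 48 hours at 5 doses. TGI: concentration producing complete growth inhibition.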
What was measured:
Assay in all cases: NCI tumour cell line growth inhibition, 48 h
[1] = system: SN12K1 renal
[2] = system: P388/ADR leukemia
[3] = system: M19-MEL melanoma
[4] = system: DMS 114 small cell lung
[5] = system: DMS 273 small cell lung
[6] = system: HOP-18 NSCLC
[7] = system: DLD-1 colon
[8] = system: P388 leukemia
[9] = system: XF 498 CNS
[10] = system: LXFL 529 NSCLC
[11] = system: RXF-631 renal

In the case of COc1cc2c(cc1Oc1c(Oc3c(O)c(OC)cc4c3C(CC(C)C)N(C)CC4)c(OC)cc3c1C(CC(C)C)N(C)CC3)C(CC(C)C)N(C)CC2 (stereo not given), the TGI [1] is reported as 3.79 µM, the TGI [2] is reported as 3.71 µM and the TGI [3] is reported as 2.58 µM. The TGI [4] was 6.52 µM, the TGI [5] was 4.21 µM and the TGI [6] was 17.1 µM. It also gave a TGI [7] of 14.2 µM and a TGI [8] of 3.62 µM.
COC1=C(C)C(=O)C2=C(C1=O)C1C3CC4=C(C(=O)C(OC)=C(C)C4=O)C(CNC(=O)C(C)O)N3C(C#N)C(C2)N1C (stereo not given) was tested, and the TGI [1] was < 0.01 µM, the TGI [3] was < 0.01 µM and the TGI [4] was < 0.01 µM. For the same molecule, the TGI [5] was < 0.0111 µM, the TGI [6] was < 0.01 µM and the TGI [7] was 0.372 µM.
For C=CC(C)C1(CCCOCc2ccccc2)C(=S)N2CCC3(CC24CCCC14)OCCO3 (stereo not given), the TGI [3] was > 100 µM, the TGI [4] was > 100 µM and the TGI [5] was > 100 µM. The TGI [6] was > 100 µM, the TGI [7] was > 100 µM and the TGI [9] was 52.7 µM. The TGI [10] was > 100 µM.
COC(=O)[C@]1(c2ccc(N(C)C)cc2OC)C[C@@H]2CCCN(CCc3c1[nH]c1ccccc31)C2 gave a TGI [1] of 34.6 µM, a TGI [2] of 47.1 µM and a TGI [3] of 32.8 µM. For the same molecule, the TGI [4] was 30.9 µM, the TGI [5] was 45.1 µM and the TGI [6] was > 58.7 µM. The TGI [7] was > 64.1 µM, the TGI [9] was 34.1 µM and the TGI [8] was 36 µM.
With O=P(Nc1ccccc1)(Oc1ccccc1)N(CCCl)CCCl (stereo not given) the TGI [3] was > 100 µM, the TGI [4] was > 100 µM and the TGI [5] was > 100 µM. For the same molecule, the TGI [6] was > 100 µM, the TGI [11] was > 100 µM and the TGI [7] was > 100 µM.
For O=C(Nc1ccccc1Cl)c1ccc([N+](=O)[O-])cc1, the TGI [3] was > 100 µM, the TGI [5] was > 100 µM and the TGI [7] was > 100 µM. For the same molecule, the TGI [9] was > 100 µM.

Source: PubChem BioAssay (NCI)
